This note sets out measurements from US7671085B2, “Non-steroidal farnesoid X receptor modulators and methods for the use thereof” (The Salk Institute for Biological Studies, priority 2002, dated 2010).

The target in one data set is T1, FXR (Homo sapiens, UniProt Q96RI1).
T1 construct: using a full length FXR on a natural response element; expressed in transfected cells
T1 sequence (Q96RI1 1-486): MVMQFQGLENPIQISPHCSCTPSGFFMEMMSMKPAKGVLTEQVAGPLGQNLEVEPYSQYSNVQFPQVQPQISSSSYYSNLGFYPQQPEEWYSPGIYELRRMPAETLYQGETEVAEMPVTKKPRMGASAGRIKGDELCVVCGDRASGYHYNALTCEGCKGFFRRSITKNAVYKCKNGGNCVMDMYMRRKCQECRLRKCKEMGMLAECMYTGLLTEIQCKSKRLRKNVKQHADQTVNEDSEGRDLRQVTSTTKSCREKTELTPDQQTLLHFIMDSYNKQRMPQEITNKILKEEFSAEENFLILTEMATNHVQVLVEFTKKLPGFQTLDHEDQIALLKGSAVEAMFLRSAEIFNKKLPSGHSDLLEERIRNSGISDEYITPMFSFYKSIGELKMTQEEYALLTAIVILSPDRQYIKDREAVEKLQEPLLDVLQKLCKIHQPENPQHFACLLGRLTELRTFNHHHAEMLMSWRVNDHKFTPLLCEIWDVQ
Nature of the data set: cell-based FXR transcription assay, FXR responsive promoter linked to luciferase reporter. To be noted: cell-based FXR reporter assay; footnote a not given. The gist of the method: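 Cells co-transfected with full-length FXR and a luciferase reporter driven by a natural response element on a minimal promoter. Compound exposure ≈10 μM for 18 h before washing and luciferase read-out, in 384-well format, with CDCA as reference activator. EC50 derived from transcriptional activity.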
In general terms: A reporter such as luciferase makes a cellular process visible.

For the next data set, the target named is T2, SXR (Homo sapiens, UniProt O75469).
T2 sequence (O75469 1-434): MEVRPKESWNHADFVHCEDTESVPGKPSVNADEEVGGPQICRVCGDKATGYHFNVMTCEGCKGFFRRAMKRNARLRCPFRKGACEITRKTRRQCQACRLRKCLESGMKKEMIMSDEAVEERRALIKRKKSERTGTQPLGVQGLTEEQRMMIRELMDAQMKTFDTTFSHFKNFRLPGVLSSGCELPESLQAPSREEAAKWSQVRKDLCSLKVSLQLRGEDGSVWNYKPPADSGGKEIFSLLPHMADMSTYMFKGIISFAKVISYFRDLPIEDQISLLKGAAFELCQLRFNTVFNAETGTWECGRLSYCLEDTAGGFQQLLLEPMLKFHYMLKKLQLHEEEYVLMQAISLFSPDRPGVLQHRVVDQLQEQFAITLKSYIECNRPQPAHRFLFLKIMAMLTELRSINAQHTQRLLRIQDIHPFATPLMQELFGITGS
Kind of data set: nuclear receptor panel: SXR activation. It counts as cell-based.

In the next data set the target is T3, mouse FXR and human RXR (Mus musculus, UniProt Q60641).
T3 construct: expressed in transfected cells; host or cells: CV-1 cells
T3 sequence (Q60641 1-488): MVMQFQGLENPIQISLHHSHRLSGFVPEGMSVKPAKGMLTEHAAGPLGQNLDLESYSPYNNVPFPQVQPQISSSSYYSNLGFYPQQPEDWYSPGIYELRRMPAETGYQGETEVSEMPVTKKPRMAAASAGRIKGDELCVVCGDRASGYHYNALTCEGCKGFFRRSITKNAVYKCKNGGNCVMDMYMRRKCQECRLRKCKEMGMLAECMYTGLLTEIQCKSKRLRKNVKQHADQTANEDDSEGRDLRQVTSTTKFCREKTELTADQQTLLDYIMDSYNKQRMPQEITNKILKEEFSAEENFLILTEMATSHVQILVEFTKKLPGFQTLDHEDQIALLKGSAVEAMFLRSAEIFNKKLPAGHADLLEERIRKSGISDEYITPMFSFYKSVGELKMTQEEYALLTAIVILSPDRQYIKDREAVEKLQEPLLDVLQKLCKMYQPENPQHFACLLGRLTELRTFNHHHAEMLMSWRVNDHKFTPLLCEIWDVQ
T3 sequence (P19793 1-462 partner): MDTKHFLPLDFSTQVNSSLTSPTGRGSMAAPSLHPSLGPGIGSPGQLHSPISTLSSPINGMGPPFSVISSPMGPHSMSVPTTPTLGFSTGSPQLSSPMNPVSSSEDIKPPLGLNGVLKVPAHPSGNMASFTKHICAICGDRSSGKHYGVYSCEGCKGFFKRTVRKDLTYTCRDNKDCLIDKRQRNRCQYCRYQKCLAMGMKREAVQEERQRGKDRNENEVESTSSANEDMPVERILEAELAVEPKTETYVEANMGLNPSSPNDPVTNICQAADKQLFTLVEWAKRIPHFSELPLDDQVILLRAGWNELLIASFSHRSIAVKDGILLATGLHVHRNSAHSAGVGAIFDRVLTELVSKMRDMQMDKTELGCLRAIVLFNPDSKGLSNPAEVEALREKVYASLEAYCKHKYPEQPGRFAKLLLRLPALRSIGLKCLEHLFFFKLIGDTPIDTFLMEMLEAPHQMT
Nature of the data set: CV-1 transient transfection reporter gene assay, TK minimal promoter with ECRE or ER-8 FXRE. Type of data set: cell-based. To be noted: CV-1 cells. On the procedure:
The ability of these compounds to activate the receptor in a number of different cell-based reporter gene assays was then determined. […] CV-1 cells were transiently transfected with an expression plasmid for mouse FXR and human RXR with a thymidine kinase (TK) minimal promoter reporter vector containing either no copies or six copies of the ecdysone response element (ECRE), a well-characterized FXR response element (FXRE). In addition, two copies of the recently identified FXRE everted repeat separated by 8 nucleotides (ER-8) was also studied (see, for example, Laffitte et al. (2000). Identification of the DNA binding specificity and potential target genes for the farnesoid X-activated receptor. J Biol Chem. 275(14), 10638-47; Kast et al. (2002). Regulation of multidrug resistance-associated protein 2 (ABCC2) by the nuclear receptors pregnane X receptor, farnesoid X-activated receptor, and constitutive androstane receptor. J Biol Chem. 277(4), 2908-15).

The test system of data set [1] is FXR (IBABP, PLTP and MRP-2 promoters). Kind of data set: transient transfection cell-based assay with natural promoters of FXR targets (IBABP, PLTP, MRP-2). An excerpt:
For this study, the following gene promoters were used: intestinal bile acid binding protein (IBABP; see, for example, Grober et al. (1999). Identification of a bile acid-responsive element in the human ileal bile acid-binding protein gene. Involvement of the farnesoid X receptor/9-cis-retinoic acid receptor heterodimer. J Biol Chem. 274(42), 29749-54), phospholipid transfer protein (PLTP) (Urizar et al (2000). The farnesoid X-activated receptor mediates bile acid activation of phospholipid transfer protein gene expression. J Biol Chem. 275(50), 39313-7) and multidrug resistance related protein 2 (MRP-2) (Kast et al. (2002), supra), which are all well characterized targets of FXR. The natural promoters of both the IBABP and PLTP genes contain one copy of an inverted repeat with a one base spacing (IR-1) while MRP-2 contains an ER-8 element. […] The most robust activation (28-fold) was seen on the IBABP promoter. Less robust (2-3 fold) but specific activation was observed on the PLTP and MRP-2 promoters.

Data set [2] concerns IBABP mRNA in HT29-FXRFL cells. Kind of data set: Northern blot of IBABP mRNA in HT29 stable cell lines. Type of data set: cell-based, Human. On the procedure: (§1) HepG2 or HT29-derived cell lines were typically cultured in medium containing superstripped FBS for 24 hr before the addition of a ligand or DMSO (vehicle) for an additional 24-48 hr. Total RNA was isolated using TRIzol reagent and was resolved (10 μg/lane) on a 1% agarose, 2.2 M formaldehyde gel, transferred to a nylon membrane (Hybond N^+; Amersham Biosciences, Inc.), and cross-linked to the membrane with UV light.
(§2) cDNA probes were radiolabeled with [α-^32P]dCTP using the highprime labeling kit (Amersham Biosciences, Inc.). Membranes were hybridized using the QuikHyb hybridization solution (Stratagene, La Jolla, Calif.) according to the manufacturer's protocol. Blots were normalized for variations of RNA loading by hybridization to a control probe, either, 18 S ribosomal cDNA, or the ribosomal protein 36B4. The RNA levels were quantitated using a PhosphorImager (ImageQuant software; Molecular Dynamics, Inc., Sunnyvale, Calif.) in addition to being exposed to X-ray film.
Human colon cells HT29 (FXR null until differentiated) were infected with retroviral vectors that expressed either FXR constructs and the puromycin-resistant gene or the puromycin-resistant gene alone. Puromycin resistant cells were isolated and pooled cell populations were propagated that harbored either the vector alone (HT29-BABE), overexpressed FXR full length (HT29-FXRFL), a non-functional FXR truncated at the AF2 region (HT29-FXR-AF2), or a constitutively active FXR that has the VP16 activation domain fused N-terminal of the protein (HT29-VP16-FXR). Confirmation of the successful establishment of the different stable cell lines was established via northern blot analysis of FXR message levels in the cells.
These observations verify the usefulness of this colon cell model system for studying the induction of FXR target genes.
The ability of the novel compounds identified herein to induce IBABP gene expression in this cell system was also examined. Total RNA from HT29 stable cells treated overnight with fexaramine, fexarine and fexarene was probed for IBABP gene expression.

The subject of data set [3] is FXR target genes SHP, MRP-2, BSEP and PLTP. Kind of data set: Northern blot of FXR target genes in HEPG2-FXR cells. The note with it: SHP, MRP-2, BSEP, PLTP. Type of data set: cell-based. On the procedure:
as §1, §2
Total RNA was isolated and the expression of the FXR target genes SHP, MRP-2, BSEP and PLTP was measured by Northern blot analysis. […]

Consider `COC(=O)/C=C/c1cccc(N(Cc2ccc3c(c2OC)OC(C)(C)C2C3C2(Cl)Cl)C(=O)C2CCCCC2)c1` (stereo not drawn) [Compound 149], for which the “RE^a” value at FXR is reported as 0.50. For the same compound, at SXR, the “SXR activation, in words” value is “potently activated SXR”.

For `CC(C)c1onc(-c2c(Cl)cccc2Cl)c1COc1ccc(/C=C/c2cccc(C(=O)O)c2)c(Cl)c1` [GW4064, reference compound], the “concentration at which maximal activity is achieved” value at mouse FXR and human RXR (ECRE and ER-8 reporters) came to 1 µM. Further, the “activity on the minimal TK promoter” value at mouse FXR and human RXR (no FXRE copies) is given as “less than 2 fold”. In addition, the “activation of ECRE FXRE reporter” value at mouse FXR and human RXR (six copies of ECRE, TK minimal promoter) is recorded as 100 fold. Further, on mouse FXR and human RXR (two copies of ER-8, TK minimal promoter), the “activation of ER-8 FXRE reporter” value is on record as 4 fold. The “concentration of maximum efficacy” value in data set [1] was found to be 1 µM. Further, the entries for the “induction of IBABP mRNA, in words” value in data set [2] (HT29-BABE or HT29-FXR-AF2 cell lines), in data set [2] (HT29-FXRFL cells) and in data set [2] (HT29-VP16-FXR cells (constitutive expression)) were “No induction of IBABP mRNA levels”, “robust concentration dependent induction of IBABP mRNA” and “super-induced”, respectively. Further, the “concentration for maximal induction of IBABP mRNA” value in data set [2] (HT29-FXRFL cells, overnight treatment) amounted to 1 µM. The “induction of FXR target genes, in words” value in data set [3] was “slightly better induction of the FXR target genes PLTP and SHP”.
